Reference: PubChem BioAssay (NCI)
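How tested: cells in 96-well plates exposed to compound for 48 hours at five concentrations. Here, GI50 denotes the concentration required for 50% inhibition of growth. Definition used: TGI = concentration required for complete inhibition of growth.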

Tests used:
Test in all cases: inhibition of tumour cell growth, NCI panel, 48 h
786-0 renal = test system: 786-0 renal
A498 renal = test system: A498 renal
ACHN renal = test system: ACHN renal
BT-549 breast = test system: BT-549 breast
CCRF-CEM leukemia = test system: CCRF-CEM leukemia
COLO 205 colon = test system: COLO 205 colon
DU-145 prostate = test system: DU-145 prostate
HCC-2998 colon = test system: HCC-2998 colon
HCT-116 colon = test system: HCT-116 colon
HCT-15 colon = test system: HCT-15 colon
HL-60(TB) leukemia = test system: HL-60(TB) leukemia
HOP-62 NSCLC = test system: HOP-62 NSCLC
HOP-92 NSCLC = test system: HOP-92 NSCLC
HS 578T breast = test system: HS 578T breast
HT29 colon = test system: HT29 colon
IGROV1 ovarian = test system: IGROV1 ovarian
K-562 leukemia = test system: K-562 leukemia
KM12 colon = test system: KM12 colon
LOX IMVI melanoma = test system: LOX IMVI melanoma
M14 melanoma = test system: M14 melanoma
MALME-3M melanoma = test system: MALME-3M melanoma
MCF7 breast = test system: MCF7 breast
MDA-MB-231 breast = test system: MDA-MB-231 breast
MOLT-4 leukemia = test system: MOLT-4 leukemia
NCI-H226 lung = test system: NCI-H226 lung
NCI-H23 lung = test system: NCI-H23 lung
NCI-H460 lung = test system: NCI-H460 lung
NCI-H522 lung = test system: NCI-H522 lung
NCI/ADR-RES ovarian = test system: NCI/ADR-RES ovarian
OVCAR-3 ovarian = test system: OVCAR-3 ovarian
OVCAR-4 ovarian = test system: OVCAR-4 ovarian
OVCAR-5 ovarian = test system: OVCAR-5 ovarian
OVCAR-8 ovarian = test system: OVCAR-8 ovarian
RPMI-8226 leukemia = test system: RPMI-8226 leukemia
RXF 393 renal = test system: RXF 393 renal
SF-268 CNS = test system: SF-268 CNS
SF-295 CNS = test system: SF-295 CNS
SF-539 CNS = test system: SF-539 CNS
SK-MEL-2 melanoma = test system: SK-MEL-2 melanoma
SK-MEL-28 melanoma = test system: SK-MEL-28 melanoma
SK-MEL-5 melanoma = test system: SK-MEL-5 melanoma
SK-OV-3 ovarian = test system: SK-OV-3 ovarian
SN12C renal = test system: SN12C renal
SNB-19 CNS = test system: SNB-19 CNS
SNB-75 CNS = test system: SNB-75 CNS
SR leukemia = test system: SR leukemia
SW-620 colon = test system: SW-620 colon
T-47D breast = test system: T-47D breast
TK-10 renal = test system: TK-10 renal
U251 CNS = test system: U251 CNS
UACC-257 melanoma = test system: UACC-257 melanoma
UACC-62 melanoma = test system: UACC-62 melanoma
UO-31 renal = test system: UO-31 renal

For COc1ccc(-c2nn(-c3cccc(Cl)c3)cc2C=C(C#N)C#N)cc1, the GI50 (786-0 renal) was 2.25 µM, the TGI (786-0 renal) was 6.36 µM and the GI50 (A498 renal) was 1.23 µM. The TGI (A498 renal) was 5.95 µM, the GI50 (ACHN renal) was 2.64 µM and the TGI (ACHN renal) was 8.82 µM. It also gave a GI50 (BT-549 breast) of 1.55 µM, a TGI (BT-549 breast) of 4.05 µM and a GI50 (CCRF-CEM leukemia) of 1.43 µM. It also gave a TGI (CCRF-CEM leukemia) of 4.76 µM, a GI50 (COLO 205 colon) of 4.04 µM and a TGI (COLO 205 colon) of 10.5 µM. It also gave a GI50 (DU-145 prostate) of 3.55 µM, a TGI (DU-145 prostate) of 90.1 µM and a GI50 (HCC-2998 colon) of 3.67 µM. It also gave a TGI (HCC-2998 colon) of 14 µM, a GI50 (HCT-116 colon) of 1.73 µM and a TGI (HCT-116 colon) of 4.44 µM. The GI50 (HCT-15 colon) was 3.24 µM, the TGI (HCT-15 colon) was greater than 100 µM and the GI50 (HL-60(TB) leukemia) was 2.39 µM. It also gave a TGI (HL-60(TB) leukemia) of 6.37 µM, a GI50 (HOP-62 NSCLC) of 2.59 µM and a TGI (HOP-62 NSCLC) of 6.04 µM. The GI50 (HOP-92 NSCLC) was 1.26 µM, the TGI (HOP-92 NSCLC) was 3.98 µM and the GI50 (HS 578T breast) was 1.57 µM. It also gave a TGI (HS 578T breast) of 7.04 µM, a GI50 (HT29 colon) of 2.48 µM and a TGI (HT29 colon) of 5.56 µM. For the same molecule, the GI50 (IGROV1 ovarian) was 2.85 µM, the TGI (IGROV1 ovarian) was 6.29 µM and the GI50 (K-562 leukemia) was 2.01 µM. For the same molecule, the TGI (K-562 leukemia) was 10.4 µM, the GI50 (KM12 colon) was 2.83 µM and the TGI (KM12 colon) was 8.86 µM. For the same molecule, the GI50 (LOX IMVI melanoma) was 2.08 µM, the TGI (LOX IMVI melanoma) was 4.81 µM and the GI50 (M14 melanoma) was 2.39 µM. It also gave a TGI (M14 melanoma) of 6.92 µM, a GI50 (MALME-3M melanoma) of 2.66 µM and a TGI (MALME-3M melanoma) of 7.76 µM. The GI50 (MCF7 breast) was 2.35 µM, the TGI (MCF7 breast) was 7.72 µM and the GI50 (MDA-MB-231 breast) was 2.03 µM. For the same molecule, the TGI (MDA-MB-231 breast) was 5.14 µM, the GI50 (MOLT-4 leukemia) was 2.12 µM and the TGI (MOLT-4 leukemia) was 6.12 µM. It also gave a GI50 (NCI-H226 lung) of 2.74 µM, a TGI (NCI-H226 lung) of 11.8 µM and a GI50 (NCI-H23 lung) of 2.68 µM. For the same molecule, the TGI (NCI-H23 lung) was 7.66 µM, the GI50 (NCI-H460 lung) was 2.05 µM and the TGI (NCI-H460 lung) was 5.37 µM. The GI50 (NCI-H522 lung) was 2.21 µM, the TGI (NCI-H522 lung) was 5.76 µM and the GI50 (NCI/ADR-RES ovarian) was 2.49 µM. For the same molecule, the TGI (NCI/ADR-RES ovarian) was 7.17 µM, the GI50 (OVCAR-3 ovarian) was 2.2 µM and the TGI (OVCAR-3 ovarian) was 4.9 µM. For the same molecule, the GI50 (OVCAR-4 ovarian) was 2.29 µM, the TGI (OVCAR-4 ovarian) was 6.48 µM and the GI50 (OVCAR-5 ovarian) was 3.68 µM. For the same molecule, the TGI (OVCAR-5 ovarian) was 48.4 µM, the GI50 (OVCAR-8 ovarian) was 2.2 µM and the TGI (OVCAR-8 ovarian) was 5.77 µM. It also gave a GI50 (RPMI-8226 leukemia) of 2.3 µM, a TGI (RPMI-8226 leukemia) of 7.1 µM and a GI50 (RXF 393 renal) of 1.85 µM. The TGI (RXF 393 renal) was 4.99 µM, the GI50 (SF-268 CNS) was 2.5 µM and the TGI (SF-268 CNS) was 9.14 µM. It also gave a GI50 (SF-295 CNS) of 2.31 µM, a TGI (SF-295 CNS) of 5.31 µM and a GI50 (SF-539 CNS) of 2.3 µM. It also gave a TGI (SF-539 CNS) of 5.44 µM, a GI50 (SK-MEL-2 melanoma) of 2.37 µM and a TGI (SK-MEL-2 melanoma) of 4.83 µM. It also gave a GI50 (SK-MEL-28 melanoma) of 2.35 µM, a TGI (SK-MEL-28 melanoma) of 5.84 µM and a GI50 (SK-MEL-5 melanoma) of 2.28 µM. For the same molecule, the TGI (SK-MEL-5 melanoma) was 5.87 µM, the GI50 (SK-OV-3 ovarian) was 2.66 µM and the TGI (SK-OV-3 ovarian) was 5.72 µM. For the same molecule, the GI50 (SN12C renal) was 3.35 µM, the TGI (SN12C renal) was greater than 100 µM and the GI50 (SNB-19 CNS) was 2.63 µM. The TGI (SNB-19 CNS) was greater than 100 µM, the GI50 (SNB-75 CNS) was 1.81 µM and the TGI (SNB-75 CNS) was 4.51 µM. It also gave a GI50 (SR leukemia) of 1.54 µM, a TGI (SR leukemia) of 3.66 µM and a GI50 (SW-620 colon) of 1.9 µM. It also gave a TGI (SW-620 colon) of 5.45 µM, a GI50 (T-47D breast) of 3.34 µM and a TGI (T-47D breast) of 21.8 µM. For the same molecule, the GI50 (TK-10 renal) was 2.6 µM, the TGI (TK-10 renal) was 6.48 µM and the GI50 (U251 CNS) was 1.59 µM. For the same molecule, the TGI (U251 CNS) was 3.33 µM, the GI50 (UACC-257 melanoma) was 1.82 µM and the TGI (UACC-257 melanoma) was 5.27 µM. It also gave a GI50 (UACC-62 melanoma) of 2.39 µM, a TGI (UACC-62 melanoma) of 10.6 µM and a GI50 (UO-31 renal) of 2.21 µM. For the same molecule, the TGI (UO-31 renal) was 7.88 µM.
